From patent EP2329817A1, “Retinoic acid receptor antagonists, miR-10a inhibitors and inhibitors of HOXB1 or HOXB3 repressors for treating pancreatic cancer” (Ernst-Moritz-Arndt-Universität Greifswald, priority 2009, dated 2011) come the findings set out here.

Holding throughout (assay type): cell-based, human
One assay relates to HOXB1. The assay is described as follows: RT-PCR / RT-qPCR of HOXB1 expression. As to conditions: quantitative PCR. The procedure: (§1) Northern Blot analysis was performed essentially according to Kloosterman et al. ^16 using a miR-10 LNA probe ([…]) (Exiqon, Denmark). We had previously described protocols for RT-PCR^17 and RT-qPCR^18 . Primers for the RT-PCR were: HOXB1: sc-38686 and HOXB3: sc-38690-PR and RARα: sc-29465-PR all from Santa Cruz Biotechnology. For quantitative RT-PCR we used 100 ng of total RNA and the Roche Master SYBR Green kit. Single-band amplification was verified by melting curve dissociation protocols. A standard curve for β-actin using 1, 5, 10, 100, and 500 ng of total RNA was used for normalization. RT-qPCR primers for HOXB1 were: forward 5'-[…]-3' and reverse 5'-[…]-3' and for HOXB3: forward 5'-[…]-3' and reverse 5'-[…]-3'.
(§2) PaTu-S and PaTu-T cells were treated (24h) as indicated with specific siRNAs against HOXB1 (B1) and HOXB3 (B3) (Co: DMSO control) in the presence or absence of Ro-41-5253. Migration of these cells was analysed after transplantation into zebrafish embryos (see Table 1) and downregulation of HOXB1 and HOXB3 expression in these cells was confirmed by PCR analysis (A).
(§3) A similar regulation is seen following incubation with miR-10a Morpholinos or with miR-10a siRNAs (right side; Control: control Morpholino or control-siRNA) (B). Results are normalized to β-actin expression and similar results were obtained in three independent experiments. […]
Background: Quantitative PCR measures a nucleic acid by following its amplification.

In the next assay the test system is PaTu-T cells. In words: In vitro migration assay (scratch assay). As to conditions: compared to DMSO control. The procedure: We used the selective RARα antagonist Ro-41-5253; to analyze its anti-migratory activity in an in vitro migration assay ("scratch assay") and in the zebrafish xenotransplantation model, respectively. […] Similar results were obtained when PaTu-T cells were treated with RAR -specific siRNAs (Supplemental Table 1 and Supplemental Fig. 1).
PaTu-T cells were incubated as indicated, with DMSO (Co), 200 nM Ro-41-5253 (RARα inh), control-Morpholino, miR-10a Morpholino, miR-196 siRNA (Co), or RARα siRNA and PaTu-S cells were co-incubated with 1 µM retinoic acid (RA) and control siRNA, RARα siRNA or Ro-415253 and miR-10a expression was evaluated by Northern blot analysis (A). […] RT-PCR control of GAPDH was used as a loading control (not shown). Dose response curves for RA and the RARα antagonist and the RT-PCR control for RARα siRNA treatment are shown in Supplemental Fig. 1. The effect of Ro-415253 on cell migration was analysed in an in vitro migration assay in PaTu-T cells. […] An actin re-blot confirmed equal loading.

The next assay relates to HOXB3. In words: RT-PCR / RT-qPCR of HOXB3 expression. As to conditions: quantitative PCR. How it is done:
as §1, §2, §3

The test system of the next assay is miR-10a. In words: cells. How it is done: Northern Blot analysis was performed essentially according to Kloosterman et al. ^16 using a miR-10 LNA probe ([…]) (Exiqon, Denmark). We had previously described protocols for RT-PCR^17 and RT-qPCR^18 . Primers for the RT-PCR were: HOXB1: sc-38686 and HOXB3: sc-38690-PR and RARα: sc-29465-PR all from Santa Cruz Biotechnology. For quantitative RT-PCR we used 100 ng of total RNA and the Roche Master SYBR Green kit. Single-band amplification was verified by melting curve dissociation protocols. A standard curve for β-actin using 1, 5, 10, 100, and 500 ng of total RNA was used for normalization. […]
PaTu-T cells were incubated as indicated, with DMSO (Co), 200 nM Ro-41-5253 (RARα inh), control-Morpholino, miR-10a Morpholino, miR-196 siRNA (Co), or RARα siRNA and PaTu-S cells were co-incubated with 1 µM retinoic acid (RA) and control siRNA, RARα siRNA or Ro-415253 and miR-10a expression was evaluated by Northern blot analysis (A). […] The effect of Ro-415253 on cell migration was analysed in an in vitro migration assay in PaTu-T cells. […]
PaTu-T cells were incubated for 24h with indicated concentrations of Ro-415253 and miR-10a expression was evaluated by northern blot analysis (upper panel). […] Patu-S cells were incubated tor 24h with indicated concentrations of ATRA and miR-10a expression was evaluated by northern blot analysis (upper panel). […]

Molecules are shown by their SMILES.

For the molecule `CCCCCCCOc1cc2c(cc1/C(C)=C/c1ccc(C(=O)O)cc1)C(C)(C)CCS2(=O)=O` [Ro-41-5253, Benzoic acid, 4-(2-(7-(heptyloxy)-3,4-dihydro-4,4-dimethyl-2H-1-benzothiopyran-6-yl)-1-propenyl)-, S,S-dioxide, (E)], the HOXB1 expression entry with HOXB1 (PaTu-T cells) was “increased”. Also, the cell migration result in the assay with PaTu-T cells is “significant inhibition”; with PaTu-T cells (listed as RARα antagonist) it was “significantly decreased”. Also, the HOXB3 expression entry in the assay with HOXB3 (PaTu-T cells) is given as “increased”. In addition, the “upregulation of miR-10a expression by retinoic acid” value in the assay on miR-10a (PaTu-S cells co-incubated with 1 µM retinoic acid) is “completely blocked”.
Take `CC1=C(/C=C/C(C)=C/C=C/C(C)=C/C(=O)O)C(C)(C)CCC1` [RA, all trans retinoic acid]: the HOXB1 expression entry in the assay with HOXB1 (PaTu-S cells) is “decreased”. Further, the HOXB3 expression result in the assay with HOXB3 (PaTu-S cells) was “decreased”. In the assay with miR-10a (Homo sapiens, 24 h, read-out: miR-10a expression upregulated), the fold induction at 1 µM is 7.2.
